In patent US10160755B2 (Plexxikon Inc., priority 2015, dated 2018):

How the values were obtained:
FLT3-ITD = biological target: T1, FLT3-ITD (Homo sapiens, UniProt P36888); test: FLT3-ITD biochemical kinase assay (AlphaScreen)
T1 construct: FLT3-ITD; Invitrogen #PV6190
T1 sequence (P36888 1-993): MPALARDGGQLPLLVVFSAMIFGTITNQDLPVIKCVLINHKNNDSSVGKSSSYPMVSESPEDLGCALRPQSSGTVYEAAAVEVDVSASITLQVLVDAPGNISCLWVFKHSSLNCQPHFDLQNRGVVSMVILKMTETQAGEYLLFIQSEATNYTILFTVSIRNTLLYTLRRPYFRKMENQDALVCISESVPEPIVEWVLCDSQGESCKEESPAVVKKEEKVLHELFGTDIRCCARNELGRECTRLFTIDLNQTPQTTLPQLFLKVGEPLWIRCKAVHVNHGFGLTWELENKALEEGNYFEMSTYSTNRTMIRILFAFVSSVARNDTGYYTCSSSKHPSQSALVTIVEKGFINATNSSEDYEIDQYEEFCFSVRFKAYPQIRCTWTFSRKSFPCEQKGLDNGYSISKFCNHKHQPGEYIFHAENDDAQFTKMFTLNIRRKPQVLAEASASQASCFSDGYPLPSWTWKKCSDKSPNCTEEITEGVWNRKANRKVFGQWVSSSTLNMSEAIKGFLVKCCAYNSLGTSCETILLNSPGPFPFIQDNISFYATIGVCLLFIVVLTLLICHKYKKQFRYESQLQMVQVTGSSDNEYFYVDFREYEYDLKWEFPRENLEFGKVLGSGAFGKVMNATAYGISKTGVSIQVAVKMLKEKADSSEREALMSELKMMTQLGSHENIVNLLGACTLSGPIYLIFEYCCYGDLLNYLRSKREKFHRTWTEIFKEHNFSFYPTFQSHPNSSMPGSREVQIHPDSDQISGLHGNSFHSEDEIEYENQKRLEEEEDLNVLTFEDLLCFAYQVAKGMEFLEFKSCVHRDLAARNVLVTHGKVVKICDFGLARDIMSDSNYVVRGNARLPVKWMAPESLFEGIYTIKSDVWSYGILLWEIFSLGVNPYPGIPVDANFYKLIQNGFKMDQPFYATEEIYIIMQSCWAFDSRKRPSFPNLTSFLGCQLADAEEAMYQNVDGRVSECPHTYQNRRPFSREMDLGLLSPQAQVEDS
How it was run: (§1)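 Recombinant enzyme phosphorylated biotin-poly(Glu4-Tyr) peptide (30 nM final); ATP final 10 μM for FLT3-D835Y, 100 μM for FLT3-ITD. AlphaScreen read-out: streptavidin donor and anti-phosphotyrosine (PY20) acceptor beads, 20 and 60 min at room temperature; inhibition seen as drop in 580 nm proximity signal; IC50 determined.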

FLT3-D835Y = biological target: T2, FLT3-D835Y (Homo sapiens, UniProt P36888, D835Y); test: FLT3-D835Y biochemical kinase assay (AlphaScreen)
T2 construct: purchased Invitrogen PV3967
T2 sequence (P36888 27-993 D835Y): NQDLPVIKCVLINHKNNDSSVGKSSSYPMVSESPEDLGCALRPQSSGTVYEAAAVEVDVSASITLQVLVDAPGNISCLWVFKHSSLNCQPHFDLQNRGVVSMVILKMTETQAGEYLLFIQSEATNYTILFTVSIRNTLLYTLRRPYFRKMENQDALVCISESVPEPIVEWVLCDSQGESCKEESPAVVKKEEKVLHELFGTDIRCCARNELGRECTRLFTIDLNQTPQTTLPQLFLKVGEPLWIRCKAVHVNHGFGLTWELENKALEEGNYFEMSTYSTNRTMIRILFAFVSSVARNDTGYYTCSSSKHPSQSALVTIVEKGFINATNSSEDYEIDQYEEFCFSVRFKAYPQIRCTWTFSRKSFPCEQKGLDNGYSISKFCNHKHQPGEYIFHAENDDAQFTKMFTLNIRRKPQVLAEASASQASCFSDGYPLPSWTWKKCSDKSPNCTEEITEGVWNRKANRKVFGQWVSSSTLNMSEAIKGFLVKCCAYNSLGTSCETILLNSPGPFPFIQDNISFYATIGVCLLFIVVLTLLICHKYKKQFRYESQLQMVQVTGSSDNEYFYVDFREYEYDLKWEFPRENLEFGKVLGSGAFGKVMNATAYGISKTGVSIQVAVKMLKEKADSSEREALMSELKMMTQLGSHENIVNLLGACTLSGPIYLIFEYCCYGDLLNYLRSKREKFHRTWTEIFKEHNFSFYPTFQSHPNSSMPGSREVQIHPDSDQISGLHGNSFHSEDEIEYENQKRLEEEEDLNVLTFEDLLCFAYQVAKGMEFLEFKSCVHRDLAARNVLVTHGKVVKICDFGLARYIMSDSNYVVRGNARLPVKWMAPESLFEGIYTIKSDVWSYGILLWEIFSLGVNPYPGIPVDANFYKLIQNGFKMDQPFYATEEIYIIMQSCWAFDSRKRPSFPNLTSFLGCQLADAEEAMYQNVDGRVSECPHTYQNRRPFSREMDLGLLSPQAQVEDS
How it was run: as §1

| IC50 (FLT3-ITD) | IC50 (FLT3-D835Y) | Structure (SMILES) |
| --- | --- | --- |
| 0.0001 to 1 µM | 0.0001 to 1 µM | Cc1cc(-c2cnc3[nH]cc(-c4ccc5ncn(C(C)(C)C)c5c4)c3n2)cnc1C#N [P-355, 5-[7-(3-tert-butylbenzimidazol-5-yl)-5H-pyrrolo[2,3-b]pyrazin-2-yl]-3-methyl-pyridine-2-carbonitrile] |
| 0.0001 to 1 µM | 0.0001 to 1 µM | N#Cc1cccc(-c2cnc3[nH]cc(-c4ccc5ncn(C6CCCNC6)c5c4)c3c2)c1 (stereo not drawn) [P-200, 3-[3-[3-(3-piperidyl)benzimidazol-5-yl]-1H-pyrrolo[2,3-b]pyridin-5-yl]benzonitrile] |
| 0.0001 to 1 µM | 0.0001 to 1 µM | N#Cc1cccc(-c2cnc3[nH]cc(-c4ccc5ncn(-c6ccc(F)cc6)c5c4)c3c2)c1 [P-201, 3-[3-[3-(4-fluorophenyl)benzimidazol-5-yl]-1H-pyrrolo[2,3-b]pyridin-5-yl]benzonitrile] |
| 0.0001 to 1 µM | 0.0001 to 1 µM | CC(C)(C)n1cnc2ccc(-c3c[nH]c4ncc(-c5cnc(C(F)(F)F)nc5)nc34)cc21 [P-343, 7-(3-tert-butylbenzimidazol-5-yl)-2-[2-(trifluoromethyl)pyrimidin-5-yl]-5H-pyrrolo[2,3-b]pyrazine] |
| 0.0001 to 1 µM | 0.0001 to 1 µM | N#Cc1cccc(-c2cnc3[nH]cc(-c4ccc5ncsc5c4)c3n2)c1 [P-181, 3-[7-(1,3-benzothiazol-6-yl)-5H-pyrrolo[2,3-b]pyrazin-2-yl]benzonitrile] |
| 0.0001 to 1 µM | 1 to 10 µM | CC(C)(C)n1cnc2ccc(-c3c[nH]c4ncc(NS(=O)(=O)c5cccc(OC(F)(F)F)c5)cc34)cc21 [P-213, N-[3-(3-tert-butylbenzimidazol-5-yl)-1H-pyrrolo[2,3-b]pyridin-5-yl]-3-(trifluoromethoxy)benzenesulfonamide] |
| 0.0001 to 1 µM | 0.0001 to 1 µM | CC(C)N1CCOc2ccc(-c3c[nH]c4ncc(C5=CCN(C(=O)C6CC6)C5)nc34)cc21 [P-189, cyclopropyl-[3-[7-(4-isopropyl-2,3-dihydro-1,4-benzoxazin-6-yl)-5H-pyrrolo[2,3-b]pyrazin-2-yl]-2,5-dihydropyrrol-1-yl]methanone] |
| 0.0001 to 1 µM | 0.0001 to 1 µM | Fc1ccc(-n2cnc3ccc(-c4c[nH]c5ncc(-c6cccc(OC(F)(F)F)c6)cc45)cc32)cc1 [P-204, 1-(4-fluorophenyl)-6-[5-[3-(trifluoromethoxy)phenyl]-1H-pyrrolo[2,3-b]pyridin-3-yl]benzimidazole] |
| 0.0001 to 1 µM | 0.0001 to 1 µM | O=C(C1CC1)N1CC=C(c2cnc3[nH]cc(-c4ccc5c(c4)N(CC(F)(F)F)CCO5)c3n2)C1 [P-190] |
| 0.0001 to 1 µM | 0.0001 to 1 µM | CC(C)(C)n1cnc2ccc(-c3c[nH]c4ncc(-c5cnn(C6CC6)c5)nc34)cc21 [P-350, 7-(3-tert-butylbenzimidazol-5-yl)-2-(1-cyclopropylpyrazol-4-yl)-5H-pyrrolo[2,3-b]pyrazine] |
| 0.0001 to 1 µM | 0.0001 to 1 µM | COc1cc(-c2cnc3[nH]cc(-c4ccc5c(c4)N(C(C)C)CCO5)c3n2)ccn1 [P-187, 4-isopropyl-6-[2-(2-methoxy-4-pyridyl)-5H-pyrrolo[2,3-b]pyrazin-7-yl]-2,3-dihydro-1,4-benzoxazine] |
| 0.0001 to 1 µM | 0.0001 to 1 µM | CC(C)(C)n1cnc2ccc(-c3c[nH]c4ncc(-c5ccc(C#N)c(N6CCCC6)c5)nc34)cc21 [P-335, 4-[7-(3-tert-butylbenzimidazol-5-yl)-5H-pyrrolo[2,3-b]pyrazin-2-yl]-2-pyrrolidin-1-yl-benzonitrile] |

Second part, the molecule before the results:

| Structure (SMILES) | IC50 (FLT3-ITD) | IC50 (FLT3-D835Y) |
| --- | --- | --- |
| CCCS(=O)(=O)Nc1cccc(-c2cnc3[nH]cc(-c4ccc5ncn(C)c5c4)c3n2)c1 [P-155, N-[3-[7-(3-methylbenzimidazol-5-yl)-5H-pyrrolo[2,3-b]pyrazin-2-yl]phenyl]propane-1-sulfonamide] | 0.0001 to 1 µM | 0.0001 to 1 µM |
| COc1cnc2[nH]cc(-c3ccc4c(c3)ncn4C)c2c1 [P-102, 5-methoxy-3-(1-methylbenzimidazol-5-yl)-1H-pyrrolo[2,3-b]pyridine] | 10 to 200 µM | 1 to 10 µM |
| COc1cc(-c2cnc3[nH]cc(-c4ccc5ncn(C6CCCC6)c5c4)c3n2)ccn1 [P-114, 7-(3-cyclopentylbenzimidazol-5-yl)-2-(2-methoxy-4-pyridyl)-5H-pyrrolo[2,3-b]pyrazine] | 0.0001 to 1 µM | 0.0001 to 1 µM |
| O=S1(=O)CCCN1c1cccc(-c2cnc3[nH]cc(-c4ccc5ncsc5c4)c3n2)c1 [P-170, 2-[3-[7-(1,3-benzothiazol-6-yl)-5H-pyrrolo[2,3-b]pyrazin-2-yl]phenyl]-1,2-thiazolidine 1,1-dioxide] | 0.0001 to 1 µM | 0.0001 to 1 µM |
| Cn1cnc2ccc(-c3c[nH]c4ncc(-c5cnn(-c6ccccn6)c5)cc34)cc21 [P-174, 1-methyl-6-[5-[1-(2-pyridyl)pyrazol-4-yl]-1H-pyrrolo[2,3-b]pyridin-3-yl]benzimidazole] | 0.0001 to 1 µM | 0.0001 to 1 µM |
| COc1cc(-c2cnc3[nH]cc(-c4ccc5ncn(C6CCCNC6)c5c4)c3n2)ccn1 (stereo not drawn) [P-136, 2-(2-methoxypyridin-4-yl)-7-(1-(piperidin-3-yl)-1H-benzo[d]imidazol-6-yl)-5H-pyrrolo[2,3-b]pyrazine] | 0.0001 to 1 µM | 0.0001 to 1 µM |
| COc1cccc(-c2cnc3[nH]cc(-c4ccc5ncsc5c4)c3n2)c1 [P-158, 6-[2-(3-methoxyphenyl)-5H-pyrrolo[2,3-b]pyrazin-7-yl]-1,3-benzothiazole] | 0.0001 to 1 µM | 0.0001 to 1 µM |
| FC(F)(F)Cn1cc(-c2cnc3[nH]cc(-c4ccc5ncsc5c4)c3n2)cn1 [P-166, 6-[2-[1-(2,2,2-trifluoroethyl)pyrazol-4-yl]-5H-pyrrolo[2,3-b]pyrazin-7-yl]-1,3-benzothiazole] | 0.0001 to 1 µM | 0.0001 to 1 µM |
| COc1cc(-c2cnc3[nH]cc(-c4ccc5ncn(C)c5c4)c3n2)cc(C)n1 [P-180, 2-(2-methoxy-6-methyl-4-pyridyl)-7-(3-methylbenzimidazol-5-yl)-5H-pyrrolo[2,3-b]pyrazine] | 0.0001 to 1 µM | 0.0001 to 1 µM |
| Cn1cnc2ccc(-c3c[nH]c4ncc(-c5cccc(N6CCCS6(=O)=O)c5)nc34)cc21 [P-153, 2-[3-[7-(3-methylbenzimidazol-5-yl)-5H-pyrrolo[2,3-b]pyrazin-2-yl]phenyl]-1,2-thiazolidine 1,1-dioxide] | 0.0001 to 1 µM | 0.0001 to 1 µM |
| COC(=O)c1cc(-c2cnc3[nH]cc(-c4ccc5ncsc5c4)c3n2)ccc1C [P-165, methyl 5-[7-(1,3-benzothiazol-6-yl)-5H-pyrrolo[2,3-b]pyrazin-2-yl]-2-methyl-benzoate] | 0.0001 to 1 µM | 0.0001 to 1 µM |
| CCS(=O)(=O)Nc1cccc(-c2cnc3[nH]cc(-c4ccc5ncn(C)c5c4)c3n2)c1 [P-154, N-[3-[7-(3-methylbenzimidazol-5-yl)-5H-pyrrolo[2,3-b]pyrazin-2-yl]phenyl]ethanesulfonamide] | 0.0001 to 1 µM | 0.0001 to 1 µM |
